This passage reports IC50 results from patent US20110053897A1 (IRM LLC, priority 2009, published 2011).

The target of one experiment is T1, Syk kinase (Homo sapiens, UniProt P43405).
T1 construct: purchased
The experiment in a line: Syk kinase inhibition, Caliper LabChip off-chip mobility-shift kinase assay. The note with it: Caliper LabChip assay; read-out: Syk Enzyme IC50. Format: biochemical. As for the experimental part: Compounds of the examples and Table 1 provided herein were assayed to measure their capacity to inhibit Syk kinase.
Compounds of the examples and Table 1 provided herein were assessed for their ability to inhibit Syk kinase by utilizing Caliper Life Sciences' proprietary LabChip™ technology. The off-chip incubation mobility-shift kinase assay uses a microfluidic chip to measure the conversion of a fluorescent peptide substrate to a phosphorylated product. The reaction mixture, from a microtiter plate well, is introduced through a capillary sipper onto the chip, where the nonphosphorylated substrate and phosphorylated product are separated by electrophoresis and detected via laser induced fluorescence. […] The phosphorylated product migrates through the chip faster than the non-phosphorylated substrate, and signals from the two forms of the peptide appear as distinct peaks. Caliper's data analysis software (HTSWA) determines peak heights, from which the ratio of product to the peak sum P/(P+S) and percent (%) conversion is calculated. This value is used to compare compound wells to control wells present on the plate, and thereby determine the % inhibition values for the compound. The formula used to calculate % inhibition is as follows, where C100% is the average % conversion of the 100% activity wells and Co% is the average % conversion of the 0% activity wells: (1−(% conversionofsample−C0%)/(C100%−C0%))*100.
Compounds (10 mM stocks in 100% DMSO) are diluted to a final concentration of 5 μM for single point inhibition experiments, and a series dilution of 10, 3, 1, 0.3, 0.1, 0.03, 0.01, 0.003, 0.001, 0.0003, 0.0001, and 0.00003 μM were made for IC50 determination. Generally, 12 μL of enzyme buffer containing purified kinase (various amount; various suppliers), 100 mM HEPES, pH 7.5, 1 mM DTT (Calbiochem, 2333153), 10 mM MgCl2 (Sigma, M-1028) or 10 mM MnCl2 (Sigma, M-1787) (assay specific), and 0.002% Brij-35 (Sigma, B4184) are added to each well. Compound and enzyme are allowed to pre-incubate for 15 minutes. 12 μL of peptide/ATP buffer containing 100 mM HEPES, pH 7.5, 1.5 μM fluorescein-labeled peptide (specific to kinase of interest), ATP (at KM apparent, Sigma, A9187), and 0.002% Brij-35 is then added to each well to initiate the reaction. The final concentration of DMSO in the well is 4%. Generally, reactions are incubated for 1 to 1.5 hours at room temperature to obtain adequate conversion of peptide to phosphorylated product in the linear range of the reaction. Reactions are terminated with the addition of 45 μL of Stop Buffer (containing 20 mM EDTA). Plates are then read on the LabChip 3000 using a 12-sipper LabChip. % conversion values and % inhibition values are obtained as provided and IC50 curves of compounds are generated using GraphPad Prism Version 4 or 5.01, or XLfit Version 4.3.2. When using GraphPad Prism, a nonlinear curve fit using the sigmoidal dose response—variable slope fit was used to graph IC50 curves and determine IC50 values and hillslopes. When using XLfit, Fit Model 205 (4-Parameter Logistic Model) is used to generate and fit the IC50 curve.
Consider `CCn1ccc2cc(Nc3cc(C)ccn3)nc(N[C@@H]3CC[C@H](CO)C3)c2c1=O` (stereo in doubt) [compound 789], for which the IC50 amounted to 0.072 µM.
For `CC(C)(C)Nc1nc(Nc2cc(CN3CC(O)C3)ccn2)cc2ccn(CCO)c(=O)c12` [Compound No. 600, 8-(tert-butylamino)-6-(4-((3-hydroxyazetidin-1-yl)methyl)pyridin-2-ylamino)-2-(2-hydroxyethyl)-2,7-naphthyridin-1(2H)-one], the IC50 is 0.0186 µM.
For `CC(C)(C)Nc1nc(Nc2cc(C(O)C(F)(F)F)ccn2)cc2ccn(CCO)c(=O)c12` (centres unmarked) [Compound No. 602, 8-(tert-butylamino)-2-(2-hydroxyethyl)-6-(4-(2,2,2-trifluoro-1-hydroxyethyl)pyridin-2-ylamino)-2,7-naphthyridin-1(2H)-one], the IC50 was 0.065 µM.
For the compound `COc1ccc(Nc2cc3ccn(CCO)c(=O)c3c(NC(C)(C)C)n2)nc1` [Compound No. 606, 8-(tert-butylamino)-2-(2-hydroxyethyl)-6-(5-methoxypyridin-2-ylamino)-2,7-naphthyridin-1(2H)-one], the IC50 was found to be 0.793 µM.
Take `CC(C)(C)Nc1nc(Nc2cc(CO)ncn2)cc2ccn(CCO)c(=O)c12` [Compound No. 607, 8-(tert-butylamino)-2-(2-hydroxyethyl)-6-(6-(hydroxymethyl)pyrimidin-4-ylamino)-2,7-naphthyridin-1(2H)-one]: the IC50 came out at 0.029 µM.
Regarding `CC(C)(C)Nc1nc(Nc2cc(C3(O)COC3)ccn2)cc2ccn(CCO)c(=O)c12` [Compound No. 609, 8-(tert-butylamino)-2-(2-hydroxyethyl)-6-(4-(3-hydroxyoxetan-3-yl)pyridin-2-ylamino)-2,7-naphthyridin-1(2H)-one], the IC50 came to 0.012 µM.

Staying with this experiment, now noted: read-out: Syk Enzyme IC50.
`Cc1ccnc(Nc2cc3cc[nH]c(=O)c3c(N[C@@H]3CCC[C@H]3O)n2)c1` (racemic) [compound 267]: the IC50 came to 0.056 µM.
For `Cc1ccnc(Nc2cc3cc[nH]c(=O)c3c(N[C@H]3CCC[C@H]3O)n2)c1` (racemic) [compound 271], the IC50 was determined as 0.026 µM.
For the compound `O=c1[nH]ccc2cc(Nc3ccccn3)nc(N[C@@H]3CCC[C@H]3O)c12` (racemic) [compound 277], the IC50 turned out to be 0.86 µM.
Same read-out and setting: with `O=c1[nH]ccc2cc(Nc3ccccn3)nc(N[C@H]3CCC[C@H]3O)c12` (racemic) [compound 280] the figure was 0.062 µM; with `Cc1ccnc(Nc2cc3ccn(C)c(=O)c3c(N[C@H]3CCC[C@H]3O)n2)c1` (racemic) [compound 324], 0.098 µM.
Regarding `Cn1ccc2cc(Nc3cnccn3)nc(N[C@H]3CCC[C@H]3O)c2c1=O` (racemic) [compound 328], the IC50 was 0.039 µM.
As to `CCn1ccc2cc(Nc3cnccn3)nc(N[C@H]3CCC[C@H]3O)c2c1=O` (racemic) [compound 354], the 50% inhibitory concentration (IC50) turned out to be 0.018 µM.
In the case of `CCn1ccc2cc(Nc3cc(C)ccn3)nc(N[C@H]3CCC[C@H]3O)c2c1=O` (racemic) [compound 360], the IC50 amounted to 0.067 µM.
`Cc1ccnc(Nc2cc3ccn(CCO)c(=O)c3c(N[C@H]3CCC[C@H]3O)n2)c1` (racemic) [compound 368]: the IC50 worked out at 0.016 µM.
On to `CCn1ccc2cc(Nc3cc(C)ccn3)nc(N[C@H]3CCCC[C@@H]3O)c2c1=O` (racemic) [compound 406], for which the IC50 was 0.476 µM.
In the case of `CCn1ccc2cc(Nc3cnccn3)nc(N[C@H]3CCCC[C@@H]3O)c2c1=O` (racemic) [compound 407], the IC50 is 0.301 µM.
Regarding `CCn1ccc2cc(Nc3cc(C)ccn3)nc(N[C@H]3CCCC[C@H]3O)c2c1=O` (racemic) [compound 408], the IC50 came to 0.324 µM.
For the compound `CCn1ccc2cc(Nc3cnccn3)nc(N[C@H]3CCCC[C@H]3O)c2c1=O` (racemic) [compound 409], the IC50 is 0.128 µM.
On the same count and under the same terms, the figure for `Cc1ncc(-c2cc3cc[nH]c(=O)c3c(Nc3ccc([C@H]4CC[C@H](N5CCOCC5)CC4)cc3)n2)cn1` [compound 1] is 0.049 µM; for `O=c1[nH]ccc2cc(C3CCNCC3)nc(Nc3ccc(N4CCOCC4)cc3)c12` [compound 2] it is 0.249 µM.
Consider `CC(C)N1CCC(c2cc3cc[nH]c(=O)c3c(Nc3ccc(N4CCOCC4)cc3)n2)CC1` [compound 3], for which the IC50 was determined as 0.202 µM.
Regarding `Nc1ncc(-c2cc3ccn(CC4CC4(F)F)c(=O)c3c(Nc3ccc(N4CCOCC4)cc3)n2)cn1` (centres unmarked) [compound 4], the half-maximal inhibitory concentration (IC50) worked out at 0.489 µM.
`COc1cncc(-c2cc3cc[nH]c(=O)c3c(Nc3ccc(N4CC5(CNC5)C4)cc3)n2)n1` [compound 5]: the 50% inhibitory concentration (IC50) came to 0.316 µM.
Consider `COc1cncc(-c2cc3cc[nH]c(=O)c3c(Nc3ccc(C4CCN(C(=O)C(O)C(C)C)CC4)c(C)c3)n2)n1` (centres unmarked) [compound 6], for which the IC50 turned out to be 0.398 µM.
Take `COc1cncc(-c2cc3cc[nH]c(=O)c3c(Nc3ccc(CCN4CCN5CCCC5C4)cc3)n2)n1` (centres unmarked) [compound 7]: the IC50 was 0.053 µM.
With `COCC(C)(C)C(=O)N1CCC(c2ccc(Nc3nc(-c4cncc(OC)n4)cc4cc[nH]c(=O)c34)cc2C)CC1` [compound 8], the IC50 came out at 0.253 µM.
As to `COCCN1CCC(c2cc3cc[nH]c(=O)c3c(Nc3ccc(N4CCOCC4)cc3)n2)CC1` [compound 9], the 50% inhibitory concentration (IC50) came out at 0.299 µM.
Turning to `O=c1[nH]ccc2cc(-c3cncnc3)nc(Nc3ccc([C@H]4CC[C@@H](N5CCOCC5)CC4)cc3)c12` [compound 10], the IC50 was 0.266 µM.
Regarding `Cc1ncc(-c2cc3cc[nH]c(=O)c3c(Nc3ccc([C@H]4CC[C@@H](N5CCOCC5)CC4)cc3)n2)cn1` [compound 11], the IC50 was determined as 0.652 µM.
For the compound `COc1cncc(-c2cc3cc[nH]c(=O)c3c(Nc3ccc(C4=CCSCC4)c(C)c3)n2)n1` [compound 12], the IC50 amounted to 3.43 µM.
On the same count and under the same terms, with `COc1cncc(-c2cc3cc[nH]c(=O)c3c(Nc3ccc(C4=CCNCC4)c(C)c3)n2)n1` [compound 13] the figure was 0.038 µM.
With `O=c1[nH]ccc2cc(C3=CCSCC3)nc(Nc3ccc(N4CCOCC4)cc3)c12` [compound 14], the IC50 came to 0.809 µM.
With `O=c1[nH]ccc2cc(C3CCSCC3)nc(Nc3ccc(N4CCOCC4)cc3)c12` [compound 15], the half-maximal inhibitory concentration (IC50) stood at 0.702 µM.
As for `COCC1(C(=O)N2CCC(c3ccc(Nc4nc(-c5cncc(OC)n5)cc5cc[nH]c(=O)c45)cc3C)CC2)CC1` [compound 16], the IC50 was determined as 0.099 µM.
Same read-out and setting: with `Cc1ncc(-c2cc3cc[nH]c(=O)c3c(Nc3ccc(N4C[C@@H](C)O[C@@H](C)C4)nc3)n2)cn1` [compound 17] the figure was 0.163 µM; with `C[C@@H]1CN(c2ccc(Nc3nc(-c4cncnc4)cc4cc[nH]c(=O)c34)cn2)C[C@H](C)O1` [compound 18], 0.245 µM; with `Cc1nc(-c2cc3cc[nH]c(=O)c3c(Nc3ccc(N4C[C@@H](C)O[C@@H](C)C4)nc3)n2)cnc1N` [compound 19], 0.222 µM.
Same read-out and setting: the figure for `COc1cncc(-c2cc3cc[nH]c(=O)c3c(Nc3ccc(N4CCC(OC)CC4)cc3)n2)n1` [compound 20] is 0.318 µM; for `COc1cncc(-c2cc3cc[nH]c(=O)c3c(Nc3ccc(CCN4CCN(C(C)C)CC4)cc3)n2)n1` [compound 21] it is 0.086 µM; for `COc1cncc(-c2cc3cc[nH]c(=O)c3c(Nc3ccc(CCN4CCNC5(CCCC5)C4)cc3)n2)n1` [compound 22] it is 0.078 µM.
Turning to `COc1cncc(-c2cc3cc[nH]c(=O)c3c(Nc3ccc(CCN4CCC(OC)CC4)cc3)n2)n1` [compound 23], the IC50 worked out at 0.039 µM.
For the compound `COc1cncc(-c2cc3cc[nH]c(=O)c3c(Nc3ccc(CCn4cncn4)cc3)n2)n1` [compound 24], the IC50 turned out to be 0.122 µM.
With `COc1cncc(-c2cc3cc[nH]c(=O)c3c(Nc3ccc(CCC(=O)N4CCOCC4)cc3)n2)n1` [compound 25], the IC50 was determined as 0.024 µM.
The same measure, in the same setting: with `COCCC(=O)N1CCC(c2ccc(Nc3nc(-c4cncc(OC)n4)cc4cc[nH]c(=O)c34)cc2)CC1` [compound 26] the figure was 0.072 µM; with `COCCOCC(=O)N1CCC(c2ccc(Nc3nc(-c4cncc(OC)n4)cc4cc[nH]c(=O)c34)cc2)CC1` [compound 27], 0.044 µM; with `CCOCC(=O)N1CCC(c2ccc(Nc3nc(-c4cncc(OC)n4)cc4cc[nH]c(=O)c34)cc2)CC1` [compound 28], 0.115 µM.
